In patent US6797731B2, “Resorcinol derivatives” (Pfizer Inc., priority 2000, dated 2004) one finds IC50 data, which are given here for one molecule.

pIC50: −log10 of the molar value.

The term pIC50 denotes the negative decadic logarithm of the IC50, by convention in mol/L. High values mean a small IC50, low ones a large IC50.

The test concerns the target T1, human tyrosinase (Homo sapiens, UniProt P14679).
T1 construct: endogenous in cells; host or cells: SKMEL 188 human melanoma cell line (lysate)
T1 sequence (P14679 19-529): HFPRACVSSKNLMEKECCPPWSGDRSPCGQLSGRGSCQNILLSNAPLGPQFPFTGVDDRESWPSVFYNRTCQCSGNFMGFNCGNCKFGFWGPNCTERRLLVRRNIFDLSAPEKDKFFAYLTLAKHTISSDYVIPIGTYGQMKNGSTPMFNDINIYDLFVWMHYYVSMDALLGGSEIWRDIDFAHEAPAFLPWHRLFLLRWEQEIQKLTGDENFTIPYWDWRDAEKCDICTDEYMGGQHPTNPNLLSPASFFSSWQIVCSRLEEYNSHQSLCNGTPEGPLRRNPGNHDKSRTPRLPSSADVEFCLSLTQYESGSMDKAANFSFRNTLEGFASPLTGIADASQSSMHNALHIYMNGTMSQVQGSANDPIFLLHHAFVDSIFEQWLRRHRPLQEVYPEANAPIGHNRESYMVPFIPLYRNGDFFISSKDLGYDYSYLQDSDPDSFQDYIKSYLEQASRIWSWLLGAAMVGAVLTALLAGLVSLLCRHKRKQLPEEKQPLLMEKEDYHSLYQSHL
The test can be described thus: Tyrosinase (DOPA oxidase) assay using cell lysate. To be noted: SKMEL 188 cell lysates; L-DOPA 100 μg/ml; incubated 8 hrs; read at 405 nm. It counts as biochemical. On the procedure: 1. Tyrosinase (DOPA Oxidase) Assay Using Cell Lysate:
Human melanoma cell line, SKMEL 188 (licensed from Memorial Sloan-Kettering), is used in the cell lysate assay and the screen. In the assay, compounds and L-dihydroxyphenylalanine (L-DOPA) (100 μg/ml) are incubated with the cell lysates containing human tyrosinase for 8 hrs before the plates are read at 405 nm.

In turn, `N[C@H](Cc1ccccc1)C(=O)O[C@H]1CC[C@H](c2ccc(O)cc2O)CC1` [Example 22, trans-4-(2,4-Dihydroxyphenyl)cyclohexyl (2R)-2-amino-3-phenylpropanoate] showed a pIC50 of about 5.70.
